Source: patent US20260091026A1, “METHODS OF TREATING INFLAMMATORY DISEASES” (INTERLINE THERAPEUTICS, INC., priority 2023, published 2026)

Experiments:
RIPK2 (KD)/XIAP (BIR2) = biological target: T1, RIPK2 (KD)/XIAP (BIR2) (Homo sapiens, UniProt O43353); test: RIPK2-XIAP binding competition PPI assay (TR-FRET); settings: for Emax: 50 nM of GSK583 = -100% activity, read-out: PPI Amax; for IC50: GST-RIPK2 / His-XIAP (BIR2)-avi, 120 min at 23° C.
T1 construct: made in house; host or cells: baculovirus-infected Sf9 cells
Summary of the method: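 After 2 h at 23 °C, complex formation was read as the 665/520 nm emission ratio (337 nm excitation), scaled between uninhibited reaction and 50 nM GSK583. The mix held 1 nM human RIPK2 kinase fragment-GST, 25 nM His-tagged XIAP BIR2 and Tb/XL665 antibodies in pH 7.5 Tris buffer containing vanadate and glycerophosphate.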

[1] = tested on: THP1-Dual cells, NF-κB pathway (SEAP); test: THP-1 Dual cell SEAP assay (L18-MDP stimulated); format: cell-based; settings: Homo sapiens, 10 ng/mL L18-MDP, 20-24 h, SEAP readout, read-out: IFNγ THP1 IC50
Summary of the method: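 IC50 values come from non-linear fits of % inhibition of SEAP, measured as QUANTI-Blue optical density (620-655 nm, 2 h) in media-blanked supernatants. These were taken from THP1-Dual cells treated with compound for 30 min before overnight exposure to 10 ng/mL L18-MDP final at 37 °C.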

T1 sequence (O43353 1-310): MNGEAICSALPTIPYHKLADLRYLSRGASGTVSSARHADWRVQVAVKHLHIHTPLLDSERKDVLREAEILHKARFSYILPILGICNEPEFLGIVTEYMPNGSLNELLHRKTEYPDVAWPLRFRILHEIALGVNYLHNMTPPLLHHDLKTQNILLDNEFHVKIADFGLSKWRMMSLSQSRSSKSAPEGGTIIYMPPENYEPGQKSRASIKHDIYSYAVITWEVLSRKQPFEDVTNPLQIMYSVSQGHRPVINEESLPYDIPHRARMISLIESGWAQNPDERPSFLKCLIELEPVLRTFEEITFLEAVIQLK

Structure (SMILES)	Emax (RIPK2 (KD)/XIAP (BIR2)) [%]	IC50 (RIPK2 (KD)/XIAP (BIR2)) [nM]	IC50 [1] [nM]
COc1cc2ncc(-c3cc(C(=O)N[C@H](C)c4cccc(F)c4)n(C)n3)n2cc1S(=O)(=O)C(C)(C)C [Example 13, (R)-3-(6-(tert-butylsulfonyl)-7-methoxyimidazo[1,2-a]pyridin-3-yl)-N-(1-(3-fluorophenyl)ethyl)-1-methyl-1H-pyrazole-5-carboxamide]	≥ 80	100 to 1000	> 2500
COc1cc2ncc(-c3cc(C(=O)NCc4cc(C)n[nH]4)n(C)n3)n2cc1S(=O)(=O)C(C)(C)C [Example 45, 3-(6-(tert-butylsulfonyl)-7-methoxyimidazo[1,2-a]pyridin-3-yl)-1-methyl-N-((3-methyl-1H-pyrazol-5-yl)methyl)-1H-pyrazole-5-carboxamide]	≥ 80	10 to 100	> 2500
COc1cc2ncc(-c3cc(C(=O)NCc4ncccc4OC)n(C)n3)n2cc1S(=O)(=O)C(C)(C)C [Example 72, 3-(6-(tert-butylsulfonyl)-7-methoxyimidazo[1,2-a]pyridin-3-yl)-N-((3-methoxypyridin-2-yl)methyl)-1-methyl-1H-pyrazole-5-carboxamide]	≥ 80	100 to 1000	> 2500
COc1cc2ncc(-c3cc(C(=O)NCc4n[nH]c5cccnc45)n(C)n3)n2cc1S(=O)(=O)C(C)(C)C [Example 18, N-((1H-pyrazolo[4,3-b]pyridin-3-yl)methyl)-3-(6-(tert-butylsulfonyl)-7-methoxyimidazo[1,2-a]pyridin-3-yl)-1-methyl-1H-pyrazole-5-carboxamide]	≥ 80	10 to 100	500 to 2500
COc1cc2ncnc(-c3cc(C(=O)NCc4ccccc4)n(C)n3)c2cc1S(=O)(=O)C(C)(C)C [Example 191, N-benzyl-3-(6-(tert-butylsulfonyl)-7-methoxyquinazolin-4-yl)-1-methyl-1H-pyrazole-5-carboxamide]	≥ 80	100 to 1000	> 2500
COc1cc2ncc(-c3cc(C(=O)NCc4ccncn4)n(C)n3)n2cc1S(=O)(=O)C(C)(C)C [Example 68, 3-(6-(tert-butylsulfonyl)-7-methoxyimidazo[1,2-a]pyridin-3-yl)-1-methyl-N-(pyrimidin-4-ylmethyl)-1H-pyrazole-5-carboxamide]	≤ 30	> 1000	> 2500
COc1ccccc1CNC(=O)c1cc(-c2cnc3cc(OC)c(S(=O)(=O)C(C)(C)C)cn23)nn1C [Example 73, 3-(6-(tert-butylsulfonyl)-7-methoxyimidazo[1,2-a]pyridin-3-yl)-N-(2-methoxybenzyl)-1-methyl-1H-pyrazole-5-carboxamide]	≥ 80	10 to 100	500 to 2500
COc1cc2ncc(-c3cc(C(=O)N[C@@H](C)c4ncccc4F)n(C)n3)n2cc1S(=O)(=O)C(C)(C)C [Example 51, (S)-3-(6-(tert-butylsulfonyl)-7-methoxyimidazo[1,2-a]pyridin-3-yl)-N-(1-(3-fluoropyridin-2-yl)ethyl)-1-methyl-1H-pyrazole-5-carboxamide]	55 to 80	> 1000	> 2500
CCn1nc(-c2cnc3cc(OCCO)c(S(=O)(=O)C(C)(C)C)cn23)cc1C(=O)NCc1nccs1 [Example 127, 3-(6-(tert-butylsulfonyl)-7-(2-hydroxyethoxy)imidazo[1,2-a]pyridin-3-yl)-1-ethyl-N-(thiazol-2-ylmethyl)-1H-pyrazole-5-carboxamide]	≥ 80	< 10	< 100
COc1cc2ncc(-c3cc(C(=O)NCc4ccn(C)n4)n(C)n3)n2cc1S(=O)(=O)C(C)(C)C [Example 24, 3-(6-(tert-butylsulfonyl)-7-methoxyimidazo[1,2-a]pyridin-3-yl)-1-methyl-N-((1-methyl-1H-pyrazol-3-yl)methyl)-1H-pyrazole-5-carboxamide]	≥ 80	100 to 1000	500 to 2500
CCn1nc(-c2cnc3cc(OCCO)c(S(=O)(=O)C(C)(C)C)cn23)cc1C(=O)N[C@H](C)c1cc(C)sn1 [Example 132, (R)-3-(6-(tert-butylsulfonyl)-7-(2-hydroxyethoxy)imidazo[1,2-a]pyridin-3-yl)-1-ethyl-N-(1-(5-methylisothiazol-3-yl)ethyl)-1H-pyrazole-5-carboxamide]	≥ 80	< 10	< 100
COc1cc2ncc(-c3cc(C(=O)NCc4nccc(C)n4)n(C)n3)n2cc1S(=O)(=O)C(C)(C)C [Example 79, 3-(6-(tert-butylsulfonyl)-7-methoxyimidazo[1,2-a]pyridin-3-yl)-1-methyl-N-((4-methylpyrimidin-2-yl)methyl)-1H-pyrazole-5-carboxamide]	≥ 80	100 to 1000	> 2500
CCn1nc(-c2cnc3cc(OCCO)c(S(=O)(=O)C(C)(C)C)cn23)cc1C(=O)NCc1ccsn1 [Example 128, 3-(6-(tert-butylsulfonyl)-7-(2-hydroxyethoxy)imidazo[1,2-a]pyridin-3-yl)-1-ethyl-N-(isothiazol-3-ylmethyl)-1H-pyrazole-5-carboxamide]	≥ 80	< 10	< 100
COc1cn2ncc(-c3cc(C(=O)N[C@H](C)c4ccccn4)n(C)n3)c2cc1C1(F)CCN(C)CC1 [Example 58, (R)-3-(5-(4-fluoro-1-methylpiperidin-4-yl)-6-methoxypyrazolo[1,5-a]pyridin-3-yl)-1-methyl-N-(1-(pyridin-2-yl)ethyl)-1H-pyrazole-5-carboxamide]	≥ 80	100 to 1000	500 to 2500
COc1cc2ncc(-c3cc(C(=O)N[C@H](C)c4ncccc4F)n(C4CN(C(=O)OC(C)(C)C)C4)n3)n2cc1S(=O)(=O)C(C)(C)C [Example 140, tert-butyl (R)-3-(3-(6-(tert-butylsulfonyl)-7-methoxyimidazo[1,2-a]pyridin-3-yl)-5-((1-(3-fluoropyridin-2-yl)ethyl)carbamoyl)-1H-pyrazol-1-yl)azetidine-1-carboxylate]	≥ 80	10 to 100	500 to 2500
COc1cc2ncc(-c3cc(C(=O)NCc4ccncc4)n(C)n3)n2cc1S(=O)(=O)C(C)(C)C [Example 29, 3-(6-(tert-butylsulfonyl)-7-methoxyimidazo[1,2-a]pyridin-3-yl)-1-methyl-N-(pyridin-4-ylmethyl)-1H-pyrazole-5-carboxamide]	≤ 30	> 1000	> 2500
C[C@H](NC(=O)c1cc(-c2cnc3cc(OCCO)c(S(=O)(=O)C(C)(C)C)cn23)nn1C)c1ncccc1Cl [Example 112, (S)-3-(6-(tert-butylsulfonyl)-7-(2-hydroxyethoxy)imidazo[1,2-a]pyridin-3-yl)-N-(1-(3-chloropyridin-2-yl)ethyl)-1-methyl-1H-pyrazole-5-carboxamide]	55 to 80	> 1000	> 2500
COc1cc2ncc(-c3cc(C(=O)NCc4nsc(C)n4)n(C)n3)n2cc1S(=O)(=O)C(C)(C)C [Example 91, 3-(6-(tert-butylsulfonyl)-7-methoxyimidazo[1,2-a]pyridin-3-yl)-1-methyl-N-((5-methyl-1,2,4-thiadiazol-3-yl)methyl)-1H-pyrazole-5-carboxamide]	55 to 80	100 to 1000	> 2500
CCn1nc(-c2cnc3cc(OCCO)c(S(=O)(=O)C(C)(C)C)cn23)cc1C(=O)N[C@H](C)c1cc(C)ccn1 [Example 134, (R)-3-(6-(tert-butylsulfonyl)-7-(2-hydroxyethoxy)imidazo[1,2-a]pyridin-3-yl)-1-ethyl-N-(1-(4-methylpyridin-2-yl)ethyl)-1H-pyrazole-5-carboxamide]	≥ 80	10 to 100	100 to 500
COc1cc2ncc(-c3cc(C(=O)NCc4nccs4)n(C)n3)n2cc1S(=O)(=O)C(C)(C)C [Example 84, 3-(6-(tert-butylsulfonyl)-7-methoxyimidazo[1,2-a]pyridin-3-yl)-1-methyl-N-(thiazol-2-ylmethyl)-1H-pyrazole-5-carboxamide]	≥ 80	10 to 100	500 to 2500
COc1cc2ncc(-c3cc(C(=O)N[C@@H](c4ccccn4)C(F)(F)F)n(C)n3)n2cc1S(=O)(=O)C(C)(C)C [Example 62, (S)-3-(6-(tert-butylsulfonyl)-7-methoxyimidazo[1,2-a]pyridin-3-yl)-1-methyl-N-(2,2,2-trifluoro-1-(pyridin-2-yl)ethyl)-1H-pyrazole-5-carboxamide]	≥ 80	100 to 1000	500 to 2500
COc1cc2ncc(-c3cc(C(=O)NCc4ncn(C)n4)n(C)n3)n2cc1S(=O)(=O)C(C)(C)C [Example 81, 3-(6-(tert-butylsulfonyl)-7-methoxyimidazo[1,2-a]pyridin-3-yl)-1-methyl-N-((1-methyl-1H-1,2,4-triazol-3-yl)methyl)-1H-pyrazole-5-carboxamide]	≥ 80	100 to 1000	> 2500
COc1cc2ncc(-c3cc(C(=O)N[C@H](C)c4ccccn4)n(CCCO)n3)n2cc1S(=O)(=O)C(C)(C)C [Example 144, (R)-3-(6-(tert-butylsulfonyl)-7-methoxyimidazo[1,2-a]pyridin-3-yl)-1-(3-hydroxypropyl)-N-(1-(pyridin-2-yl)ethyl)-1H-pyrazole-5-carboxamide]	≥ 80	10 to 100	100 to 500
